Reference: patent US9598448B2, “Osmium (II) arene imino anti-cancer complexes” (University of Warwick, priority 2010, dated 2017)
“Also recorded” adds a separate entry of the source.

Legend:
[1] = test system: A2780/cis ovarian (cisplatin-resistant); assay: MTT growth inhibition assay, A2780/cis; assay type: cell-based, human; conditions: 96 h
Description: (§1) Tumor cell growth inhibition was assessed using the MTT assay.^13 2×10^3 cells were inoculated into a 96-well plate and incubated overnight at 37° C. in a humidified atmosphere containing 5% CO2. Complexes were solubilised in DMSO as above, and then diluted in complete cell culture medium to give a broad range of concentrations. Cisplatin was included in the screen as a comparator. Medium was removed from each well and replaced with complex or control solutions, and the plates then incubated for a further 96 hours. After 96 h culture medium was removed and 200 μL of 0.5 mg mL^−1 MTT solution (Sigma) in complete medium added to each well. Following further 4 h incubation, the solution was removed from each well and 150 μL of DMSO (Sigma) added to solubilise the formazan crystals resulting from MTT conversion. Absorbance values for the resulting solutions were read at 550 nm on a microplate reader and cell survival calculated as the absorbance of treated cells divided by the control. Results were expressed in terms of IC50 values (i.e. concentration of compound required to kill 50% of cells) and all experiments were performed in triplicate.
(§2) The following human cancer cell lines were cultured in RPMI 1640 cell culture medium supplemented with 1 mM sodium pyruvate, 2 mM L-glutamine and 10% fetal bovine serum (all from Sigma): A549 non-small cell lung, HCT-116 colon, MCF-7 breast, PC-3 prostate (all from LGC Promochem, Teddington, UK), A2780/cis ovarian (cisplatin-resistant) and RT-112 bladder (both from ECACC, Salisbury, UK).

PC-3 prostate = assay: MTT growth inhibition assay, PC-3; assay type: cell-based, human; conditions: 96 h
Description: as §1, §2

[2] = test system: Balb/c immunodeficient nude mice bearing HCT-116 tumours; assay: Evaluation of in vivo toxicity in nude mouse HCT-116 xenograft model; conditions: i.v. day 0, doses from 2 up to 40 mg kg^−1, monitored 15 days
Description: Female Balb/c immunodeficient nude mice (Harlan, Loughborough, UK) aged 6-12 weeks were used. Mice received Harlan 2018 diet (Harlan) and water ad libitum. Mice were kept in cages in an air-conditioned room with regular alternating cycles of light and darkness. All animal procedures were carried out under a project license issued by the UK Home Office and UKCCCR guidelines (Workman P, Twentyman P, Balkwill F et al: United Kingdom Co-ordinating Committee on Cancer Research (UKCCCR) Guidelines for the Welfare of Animals in Experimental Neoplasia (Second Edition). Br J Cancer 77: 1-10, 1998) were followed throughout.
HCT-116 was used in the study. Tumours were excised from a donor animal, placed in sterile physiological saline containing antibiotics and cut into small fragments of approximately 2 mm^3. Under brief general inhalation anaesthesia, fragments were implanted in the […] abdominal flank of each mouse using a trocar. Once the tumours could accurately be measured using callipers (mean tumour volume of approximately 50 mm^3), treatment commenced. Complexes 3 and 6 were solubilised in 10% DMSO; 5% Tween-80; 85% saline and were administered intravenously to groups of 2 mice on day 0. Animals were weighed frequently and monitored for any deleterious effects over a period of 15 days.

[3] = test system: HCT-116 colon adenocarcinoma s.c. xenograft model; assay: In vivo efficacy in HCT-116 s.c. xenograft model
[4] = Stability and hydrolysis (1H NMR, MS, UV-vis); assay type: physicochemical; conditions: 310 K, 24 h, 95% deuterated phosphate buffer (10 mM)/5% MeOD-d4
RT-112 bladder = assay: MTT growth inhibition assay, RT-112; assay type: cell-based, human; conditions: MTT, 96 h
Description: as §1, §2

MCF-7 breast = assay: MTT growth inhibition assay, MCF-7; assay type: cell-based, human; conditions: 96 h
Description: as §1, §2

[5] = test system: human ovarian A2780 cancer cells; assay: SRB growth inhibition assay, A2780; assay type: cell-based; conditions: SRB; 24 h exposure, 72 h recovery; read-out: IC50 values for azopyridine complexes against A2780 ovarian cancer cells
Description: The concentrations of the osmium complexes that inhibit 50% of the proliferation of human ovarian A2780 cancer cells were determined by sulforhodamine B test. A2780 cells were seeded in 96-well plate (Falcon) at 5000 cells/well, after the incubation for 48 h, The complexes were solubilised in DMSO (Sigma) to provide 10 mM stocks. The stocks were serially diluted by cell culture media to give concentrations four-fold than the final concentrations for the assay. The dilutions of complexes in cell culture media were added to the 96-well plate with cells in triplicates to achieve the final concentrations. The final DMSO concentration in each well was no more than 1% (v/v). The complexes were removed after 24 h. The cells were washed with Phosphate Buffered Saline once and cell culture media was added 150 μL/well. The cells were recovered for 72 h. The surviving cells were fixed by adding 150 μL/well of 50% (w/v) trichloroacetic acid and incubated for 1 h at 277 K (277 K). The plates were washed with tap water three times and dried under a flow of warm air, 0.4% sulforhodamine B (Sigma) solution 100 μL/well followed by washing with 1% acetic acid five times and dried under a flow of warm air. The dye was dissolved in 10 mM Tris buffer […] The absorbance of each well was obtained by the Multiskan Ascent plate reader (Labsystems) at 540 nm. The absorbance value of SRB in each well is directly proportional to the cell number. Then the absorbance can be plotted against concentration and the IC50 determined by using Origin software.
The cytotoxicity studies were carried out as described previously above.

tubulin = assay: Tubulin polymerization assay; assay type: biochemical; conditions: Osmium Compounds at 10 μM; 37° C., 60 min
Description: To follow the anticancer mechanism indicated by COMPARE, We have investigated whether osmium complexes can interacted directly with tubulin.
A Cytoskeleton tubulin polymerization assay kit (catalog no BK004) was used in the tubulin polymerization study. Briefly, 10 μL of general tubulin buffer (80 mM PIPES, pH 6.9, 2 mM MgCl2, and 0.5 mM EGTA) containing osmium compound, colchicine or taxol was pipetted into the prewarmed 96 well microplate. Tubulin (defrosted to room temperature from −80° C. and then placed on ice before use) was diluted with tubulin polymerization buffer with 1 mM GTP to a final concentration of 4 mg mL^−1. Diluted tubulin (100 μL) was added into the wells containing osmium compound, colchicine or taxol. Diluted tubulin (100 μL) mixed with general tubulin buffer (10 μL) served as control. The absorbance at 340 nm was read immediately with a Tecan microplate reader.

Leukemia MOLT-4 = assay: NCI 60-cell line screen, MOLT-4; assay type: cell-based, human; conditions: Leukemia MOLT-4, 48 h
Description: The cells were treated for 48 h at five concentrations ranging from 0.01 to 100 μM. Three endpoints were calculated: GI 50 (the concentration inhibits cell growth by 50%): […]

HCT-116 colon = assay: MTT growth inhibition assay, HCT-116; assay type: cell-based, human; conditions: 96 h
Description: as §1, §2

[6] = 40.0 mg kg^−1, single intravenous injection

Substance: [(η^6-p-cym)Os(Azpy-NMe2)I]PF6 [Complex 6]
- IC50 [1]: < 300 nM
- IC50 (PC-3 prostate): 600 nM
- toxicity / deleterious effects [2]: no evident toxicity; also recorded: negligible deleterious effects
- Maximum % weight loss [3, 6]: 8%
- Median tumour doubling time [3, 6]: 6.2 days
- day of maximum % weight loss [3, 6]: 1 days
- toxicity ([3]; single i.v. 40 mg/kg): negligible toxicity
- tumour growth delay ([3]; single i.v. 40 mg/kg, compared to the untreated control (p<0.01)): statistically significant tumour growth delay
- stability and hydrolysis in aqueous solution [4]: remained stable and did not hydrolyze
- IC50 (RT-112 bladder): < 300 nM
- IC50 (MCF-7 breast): 79 nM
- IC50 [5]: 200 nM
- Inhibition of Tubulin Polimerziation (tubulin): 28.6%
- GI50 (Leukemia MOLT-4): < 50 nM
- IC50 (HCT-116 colon): < 300 nM
